Measured values as given in US4262008A, “2,4-Disubstituted 5-oxo-5H-hexahydrofuro[3,2b]pyrroles” (Beecham Group Limited, priority 1978, dated 1981).
Like-named read-outs stand apart in the source and are kept apart here.

Tests used:
[1] = tested on: platelet aggregation in response to A.D.P. (human platelet-rich plasma); test: Platelet aggregation in vitro, response to A.D.P.; type: cell-based; conditions: human P.R.P., 37° C., 3 min preincubation, 50% inhibition of first-phase aggregation response, read-out: IC50 vs. ADP
Experimental: (§1) Human blood (20 ml) is drawn into a plastic syringe and immediately anti-coagulated by mixing with 0.1 volumes of 3.8% (w/v) trisodium citrate dihydrate. Platelet-rich plasma (P.R.P.) is prepared by centrifuging the anticoagulated blood of 180 g, for 12 minutes, at room temperature. Collagen "Collagen-reagent Horm" (Hormon-Chemie Munchem, Postfach 101, Germany) is dilated as necessary with 0.9% (w/v) saline and kept on ice. Adenosine 5'-diphosphate (A.D.P.) (Grade 1: sodium salt from equine muscle, Sigma.) is diluted, as necessary with 0.9% saline, from a 10 mM stock solution, pH 6.8 kept at -20° C. The compounds are dissolved freshly to 40 mM in dimethylformamide. P.R.P. is mixed with 0.1 volumes saline and 0.005 volumes compound on dimethylformamide (control) and incubated at 37° C. for 3 minutes before the addition of collagen.
(§2) Platelet aggregation in response to collagen and A.D.P. is measured photometrically (Born G.V.R., 1962, Nature, 194 927) in a Bryston aggregometer coupled to a Vitatron linear pen recorder. The concentration of collagen producing a just-maximal change in light transmittance and the concentration of A.D.P. to produce only a first-phase aggregation response are established in each control P.R.P. The concentration of compounds to inhibit these control response by 50% in each case are determined.

[2] = tested on: platelet aggregation in response to collagen (human platelet-rich plasma); test: Platelet aggregation in vitro, response to collagen; type: cell-based; conditions: human P.R.P., 37° C., 3 min preincubation, 50% inhibition of just-maximal collagen response
Experimental: as §1, §2

[3] = tested on: bronchoconstriction induced by an histamine aerosol; test: Protection of conscious guinea pigs against bronchoconstriction induced by histamine aerosol (Herxheimer test); type: in vivo, guinea pig; conditions: aerosol generated from a 100 μg/ml solution
Experimental: 3. The compounds were also examined for their ability to protect conscious guinea pigs against bronchoconstriction induced by an histamine aerosol (Herxheimer test). In these experiments the compounds were administered by aerosol administration.

[4] = tested on: histamine induced changes in pulmonary resistance and lung compliance; test: Inhibition of histamine induced changes in pulmonary resistance and lung compliance in anaesthetised spontaneously respiring guinea pig; type: in vivo; conditions: Cavia porcellus, iv
Experimental: 2. The compounds were tested for their ability to inhibit histamine induced changes in pulmonary resistance and lung compliance in the anaesthetised spontaneously respiring guinea pig. The compounds were administered intravenously.

[5] = tested on: 5-hydroxytryptamine induced bronchoconstriction; test: Inhibition of 5-hydroxytryptamine induced bronchoconstriction in anaesthetised, artificially respired guinea pig (Konzett-Rossler preparation); type: in vivo
Experimental: 1. The compounds were examined for their ability to inhibit 5-hydroxytryptamine induced bronchoconstriction in the anaesthetised, artificially respired guinea pig (Konzett-Rossler preparation). The compounds were administered intravenously.

**Q.** Which IC50 [1] does the source give for `CCCCCCC(O)CCN1C(=O)CC2OC(CCCCC(=O)OCC)CC21` (single isomer, unassigned) [Example 4 (Higher Rf epimer), 2-(4'-ethoxycarbonyl-n-butyl)-4-(3"-hydroxy-n-nonyl)-5-oxo-5H-hexahydrofuro[3,2b]pyrrole] here?
**A.** 7.4 µM

**Q.** What about the IC50 [2] of the same molecule?
**A.** 2900 nM

**Q.** Which results are given for `CCCCCCC(O)CCN1C(=O)CC2OC(CCCCC(=O)OCC)CC21` (single isomer, unassigned) [Example 4 (Lower Rf epimer), 2-(4'-ethoxycarbonyl-n-butyl)-4-(3"-hydroxy-n-nonyl)-5-oxo-5H-hexahydrofuro[3,2b]pyrrole]?
**A.** IC50 [1]: 120 µM; IC50 [2]: 28000 nM

**Q.** With `CCCCCCC(C)(O)CCN1C(=O)CC2OC(CCCCC(=O)OCC)CC21` (stereo not shown) [Example 1, 2-(4'-Ethoxycarbonyl-n-butyl)-4-(3"-hydroxy-3"-methyl-n-nonyl)-5-oxo-5H-hexahydro-furo[3,2-b]pyrrole] as the molecule, how does the IC50 ([1]; Homo sapiens, Platelet) read?
**A.** 35 µM

**Q.** And the “protection against histamine challenge” value [3]?
**A.** highly significant protection

**Q.** What about the ED50 ([4]; lung compliance, read-out: ED 50 against compliance changes) of the same molecule?
**A.** 0.046 mg/kg

**Q.** And the ED50 ([4]; pulmonary resistance, read-out: ED 50 against resistance changes)?
**A.** 0.033 mg/kg

**Q.** What about the ED50 ([5]; Cavia porcellus, iv, mean of 3 experiments, read-out: ED 50 against 5-hydroxytryptamine induced bronchoconstriction) of the same molecule?
**A.** 0.131 mg/kg

**Q.** And the “ED 50 range against 5-hydroxytryptamine induced bronchoconstriction” value ([5]; i.v., range of 3 experiments)?
**A.** 115 to 150 µg/kg

**Q.** And the IC50 ([2]; Homo sapiens, Platelet)?
**A.** 8800 nM

**Q.** What does the source list for `CCCCCC(O)CCN1C(=O)CC2OC(CCCCC(=O)OC)CC21` (stereo not shown) [Example 3, 4-(3"-Hydroxy-n-octyl)-2-(4'-methoxycarbonyl-n-butyl)-5-oxo-5H-hexahydrofuro[3,2-b]pyrrole]?
**A.** IC50 ([1]; Homo sapiens, Platelet): 4.9 µM; IC50 ([2]; Homo sapiens, Platelet): 1700 nM

**Q.** Which results are given for `CCOC(=O)CCCCC1CC2C(CC(=O)N2CCC(C)(O)CC2CCCCC2)O1` (stereo not shown) [Example 5, 2-(4'-ethoxycarbonyl-n-butyl)-4-(3"-hydroxy-3"-hydroxy-3"-methyl-4"-cyclohexyl-n-butyl)5-oxo-5H-hexahydro-furo [3-2b]pyrrole]?
**A.** IC50 ([1]; Homo sapiens, Platelet): 100 µM; IC50 ([2]; Homo sapiens, Platelet): 17000 nM

**Q.** What does the source list for `CCOC(=O)CCCCCC1CC2C(CC(=O)N2CCC(C)(O)C2CCCCC2)O1` (stereo not shown) [Example 6, 2-(5'-ethoxycarbonyl-n-pentyl)-4-(3"-hydroxy-3"-cyclohexyl-n-butyl)-5-oxo-5H-hexahydro-furo[3,2b]pyrrole]?
**A.** IC50 ([1]; Homo sapiens, Platelet): 2.5 µM; IC50 ([2]; Homo sapiens, Platelet): 1200 nM

**Q.** Which IC50 ([1]; Homo sapiens, Platelet) does the source give for `CCOC(=O)CCCCC1CC2C(CC(=O)N2CCC(C)(O)C2CCCCC2)O1` (stereo not shown) [Example 7, 2-(5'-ethoxycarbonyl-n-butyl)-4-(3"-hydroxy-3"-cyclohexyl-n-butyl)-5-oxo-5H-hexahydro-furo[3,2b]pyrrole] here?
**A.** 0.54 µM

**Q.** What about the IC50 ([2]; Homo sapiens, Platelet) of the same molecule?
**A.** 260 nM
